Laboratory results taken from patent publication US20230203482A1, “Methods of Rescuing Stop Codons via Genetic Reassignment with ACE-tRNA” (THE WISTAR INSTITUTE OF ANATOMY AND BIOLOGY, priority 2017, published 2023).

B1: Glychr19.trna2: top performing glycine ACE-tRNA UGA suppressor, SEQ ID NO: 53 (nucleic acid)
chain: GCGTTGGTGGTATAGTGGTTAGCATAGCTGCCTTCAAAGCAGTTGACCCGGGTTCGATTCCCGGCCAACGCA
modifications: chemistry not fully specified

Tested on: native stop codons (TAA, TAG, TGA) of HEK293 transcripts
Assay: Ribosome footprint profiling of transcriptome-wide 3′UTRs
Assay type: cell-based, human
Conditions: for ribosome occupancy at each nucleotide in the 3′UTR downstream of stop codons: HEK293, log 2-fold change versus control; for readthrough of native stop codons / global translation termination: HEK293, summary in discussion
Source text: The question was raised whether ACE-tRNAs that show efficacious suppression of premature stop codons may also induce global readthrough of native stop codons. To address this potential “off target” suppression, a transcriptome-wide quantitative profile of actively engaged ribosomes on all cellular transcripts was obtained by generating libraries of ribosome footprints from HEK293 cells expressing exogenous ACE-tRNAs or a control mock plasmid (puc57GG). Streptomycin was removed from the growth media to prevent readthrough artifacts. For comparison, the ribosome footprint library was also generated from cells in the presence or absence of G418 (150 μM, 48 hours). […] Only transcripts with a minimum threshold of 5 RPKM in the coding sequence and 0.5 RPKM in the 3′UTR in two replicate libraries were included for the quantitation comparison (254 transcripts in G418 and 495-748 transcripts in ACE-tRNAs). […] ACE-tRNAs examined here had no detectable change of 3′UTR ribosome density with the exception of ACE-tRNA Gln-UAA and Arg-UGA which induced approximately a 2-fold increase in 3′UTR ribosome density for the cognate stop codon complimentary to the ACE-tRNA anticodon. Understanding the biological significance of 2-fold readthrough of protein stops will require further study, but this effect is substantially lower compared to the 100- to 1000-fold suppression of PTC for the same ACE-tRNA.
Multiple in-frame stop codons are frequently found at the end of genes^37-39 and may cause a minor difference in overall 3′UTR ribosome density for ACE-tRNA and G418 treatment. Ribosome occupancy was examined at each nucleotide in the 3′UTR within a 60 nt region downstream of the stop codons. […] Reads were normalized per total million-mapped reads, compared against control cells, and reported as a log 2-fold change as in panel A. More than 5,200 transcripts were mapped to at least 1 footprint in the region of interest. […] Taken together, the ribosome profiling data argue that efficiency of native stop codon suppression by ACE-tRNAs is generally low, and markedly less than the level of PTC suppression.
Ribosome Footprint Profiling Library preparation. HEK293 cells transiently transfected with ACE-tRNAs and control plasmid (puc57GG) were grown in standard grown media in the absence of Pen-Strep for 48 h. Libraries were prepared as described^55, with a few modifications. Briefly, cells were rapidly cooled by addition of ice-cold PBS, lysed in lysis buffer (20 mM Tris-HCl/pH7.4, 150 mM NaCl, 5 mM MgCl2, 1 mM DTT, 1% (v/v) Triton X-100, and 25 U ml^−1 Turbo DNase I) for 10 min on ice, and triturated with ten times through a 26-G needle. After clearance by centrifugation at 16,000 g for 10 min at 4° C., the lysates were digested with 100 U RNase I (Ambion, USA) per A260 lysate at room temperature for 45 min with gentle agitation prior to adding 200 U RiboLock RNase Inhibitor (Thermo Scientific). Ribosome protected mRNA fragments were then isolated by loading lysates onto a 1M sucrose cushion prepared in modified polysome buffer (20 mM Tris-HCl/pH7.4, 150 mM NaCl, 8.5 mM MgCl2, 0.5 mM DTT, 20 U ml^−1 RiboLock RNase Inhibitor) and centrifugated at 70,000 rpm at 4° C. for 2 h using a Beckmen TLA-110 rotor. Ribosome pellets containing mRNA footprints were extracted using TRIzol and separated on a denaturing 12% polyacrylamide gel containing 8M urea. RNA fragments with sizes ranging from 26 to 34 nt were manually excised from the gel stained with SYBR Gold (Invitrogen) and isolated to generate the ribosome-protected fragment library. Contaminating rRNA fragments depleted using a Ribo-Zero kit (Illumina). 3′ Oligonucleotide adaptor ligation, reverse transcription, circularization, and secondary rRNA depletion using biotinylated rRNA depletion oligos (Table 9) were performed as described^55. Libraries were barcoded using indexing primers for each sample during PCR amplification. […]

Row | Molecule | ribosome occupancy at each nucleotide in the 3′UTR downstream of stop codons | readthrough of native stop codons / global translation termination
1 | Trpchr17.trna39: top performing tryptophan ACE-tRNA UGA suppressor, SEQ ID NO: 48 | no observable change of ribosome occupancy | no significant effect on global translation termination
2 | B1 | no observable change of ribosome occupancy | no significant effect on global translation termination
